{"source": "patent US4191688A", "about": "“Amides of leurosine, leuroformine, desacetylleurosine and desacetylleuroformine” (Eli Lilly and Company, priority 1978, dated 1980)", "key": {"[1]": {"system": "experimental malignancies", "settings": "animals; cited from earlier work"}, "[2]": {"system": "P388 leukemia", "assay": "Activity against P388 leukemia in mice", "assay_type": "in vivo", "settings": "3 days apart"}, "[3]": {"system": "Gardner lymphosarcoma", "assay": "Activity versus Gardner Lymphosarcoma in mice", "assay_type": "in vivo", "settings": "9 days, usually intraperitoneal", "description": "The following table--Table 1--gives the results of experiments in which mice bearing transplanted Gardner lymphosarcoma were treated successfully with a compound of this invention. In the table, column 1 gives the name of the compound; column 2, the dose level and column 3, the percent inhibition of tumor growth."}, "[4]": {"assay": "pKa titration", "assay_type": "physicochemical", "settings": "for pKa: 66 percent dmf, in 66 percent DMF", "description": "A reaction mixture containing 450 mg. of leurosine, 15 ml. of tetrahydrofurane (THF), 8 ml. of anhydrous hydrazine, and 6 ml. of methanol were heated in a sealed glass bomb for 3 days at 50° C. The bomb was opened, the solvents removed in vacuo, and the resulting residue comprising 4-desacetylleurosine C-3 carboxhydrazide formed in the above reaction, was dissolved in methylene dichloride. The methylene dichloride solution was washed with water and dried. Removal of the solvent in vacuo yielded 4-desacetylleurosine C-3 carboxhydrazide as a residue shown by TLC to contain trace quantities of leurosine and of 4-desacetylleurosine. Pure 4-desacetylleurosine C-3 carboxhydrazide (1-spot material) was prepared by chromatographing the residue over silica using 1:1:1 methylenedichloride/ethyl acetate/methanol as the eluant. Fractions shown by TLC to contain 4-desacetylleurosine C-3 carboxhydrazide were combined.\nTitration; pKa at 5.3, 7.0"}, "[5]": {"system": "tumor", "settings": "Owellen 1975; Cullinan 1975; cited from earlier work"}, "[6]": {"system": "P1534 murine leukemia", "settings": "Hargrove, Lloydia 1964, cited from earlier work"}, "[7]": {"assay": "Stability on standing in air", "assay_type": "physicochemical", "settings": "upon standing in air"}, "[8]": {"settings": "titration, free base, solvent not stated"}}, "note": "Several values for one entry are separate records, joined by “and”; a condition that tells them apart may be missing. Identical values can stand only once. Like-named read-outs stand apart in the source and are kept apart here.", "data": [{"smiles": "CCC1(O)CC2CN(CCc3c([nH]c4ccccc34)C(C(=O)OC)(c3cc4c(cc3OC)N(C)C3C(O)(C(=O)OC)C(OC(C)=O)C5(CC)C=CCN6CCC43C65)C2)C1", "note": "(stereo not shown) [vincaleukoblastine]", "values": [{"measurement": "activity in the treatment of experimental malignancies", "setting": "[1]", "value": "active"}]}, {"smiles": "CCC12CN3CCc4c([nH]c5ccccc45)C(C(=O)OC)(c4cc5c(cc4OC)N(C)C4C(O)(C(=O)NCCSSCCNC(=O)C6(O)C(O)C7(CC)C=CCN8CCC9(c%10cc(C%11(C(=O)OC)CC%12CN(CCc%13c%11[nH]c%11ccccc%13%11)CC%11(CC)OC%12%11)c(OC)cc%10N(C)C69)C87)C(O)C6(CC)C=CCN7CCC54C76)CC(C3)C1O2", "note": "(stereo not drawn) [Bis[β-(4-desacetylleurosine C-3 carboxamide)ethyl]disulfide disulfate]", "values": [{"measurement": "prolongation of survival time", "setting": "[2]; 15 mg/kg on three occasions", "value": 55, "unit": "%"}, {"measurement": "prolongation of survival time", "setting": "[2]; 30 mg/kg on three occasions", "value": 46, "unit": "%"}]}, {"smiles": "CC[C@@H]1C[C@@H]2CN(CCc3c([nH]c4ccccc34)[C@@](C(=O)OC)(c3cc4c(cc3OC)N(C)[C@H]3[C@@](O)(C(=O)OC)[C@H](OC(C)=O)[C@]5(CC)C=CCN6CC[C@]43[C@@H]65)C2)C1", "note": "[deoxy VLB \"A\"]", "values": [{"measurement": "activity in the treatment of experimental malignancies", "setting": "[1]", "value": "active"}]}, {"smiles": "CCC12CN3CCc4c([nH]c5ccccc45)C(C(=O)OC)(c4cc5c(cc4OC)N(C=O)C4C(O)(C(N)=O)C(O)C6(CC)C=CCN7CCC54C76)CC(C3)C1O2", "note": "(stereo not shown) [4-desacetylleuroformine C-3 carboxamide, 4-Desacetylleuroformine C-3 Carboxamide]", "values": [{"measurement": "Percent Inhibition of tumor growth", "setting": "[3]; 12 mg/kg per day", "value": 39, "unit": "%"}]}, {"smiles": "CCC1(O)CN2CCc3c([nH]c4ccccc34)C(C(=O)OC)(c3cc4c(cc3OC)N(C)C3C(O)(C(=O)OC)C(OC(C)=O)C5(CC)C=CCN6CCC43C65)CC(C2)C1O", "note": "(stereo not shown) [vincadioline]", "values": [{"measurement": "activity in the treatment of experimental malignancies", "setting": "[1]", "value": "active"}]}, {"smiles": "CC[C@]1(O)C[C@@H]2CN(CCc3c([nH]c4ccccc34)[C@@](C(=O)OC)(c3cc4c(cc3OC)N(C)[C@@H]3[C@]45CCN4CC=C[C@@](CC)(C[C@]3(O)C(=O)OC)[C@H]45)C2)C1", "note": "[4-desacetoxy vinblastine]", "values": [{"measurement": "activity in the treatment of experimental malignancies", "setting": "[1]", "value": "active"}]}, {"smiles": "CCC12CN3CCc4c([nH]c5ccccc45)C(C(=O)OC)(c4cc5c(cc4OC)N(C)C4C(O)(C(=O)NC)C(O)C6(CC)C=CCN7CCC54C76)CC(C3)C1O2", "note": "(stereo not shown) [4-Desacetylleurosine C-3 N-Methyl Carboxamide]", "values": [{"measurement": "Percent Inhibition of tumor growth", "setting": "[3]; 3 mg/kg per day", "value": 33, "unit": "%"}, {"measurement": "Percent Inhibition of tumor growth", "setting": "[3]; 6 mg/kg per day", "value": 100, "unit": "%"}, {"measurement": "Toxicity (printed in Percent Inhibition column)", "setting": "[3]; 12 mg/kg per day", "value": "Toxic"}]}, {"smiles": "CCC12CN3CCc4c([nH]c5ccccc45)C(C(=O)OC)(c4cc5c(cc4OC)N(C=O)C4C(O)(C(=O)OC)C(OC(C)=O)C6(CC)C=CCN7CCC54C76)CC(C3)C1O2", "note": "(stereo not shown) [leuroformine]", "values": [{"measurement": "activity in the treatment of experimental malignancies", "setting": "[1]", "value": "active"}]}, {"smiles": "CCC1(O)CN2CCc3c([nH]c4ccccc34)C(C(=O)OC)(c3cc4c(cc3OC)N(C)C3C(O)(C(=O)OC)C(OC(C)=O)C5(CC)C=CCN6CCC43C65)CC(O)(C2)C1", "note": "(stereo not shown) [leurocolombine]", "values": [{"measurement": "activity in the treatment of experimental malignancies", "setting": "[1]", "value": "active"}]}, {"smiles": "CCC12CN3CCc4c([nH]c5ccccc45)C(C(=O)OC)(c4cc5c(cc4OC)N(C)C4C(O)(C(=O)NN)C(O)C6(CC)C=CCN7CCC54C76)CC(C3)C1O2", "note": "(stereo not shown) [4-desacetylleurosine C-3 carboxhydrazide, 4-Desacetylleurosine C-3 Carboxhydrazide]", "values": [{"measurement": "pKa", "setting": "[4]; read-out: pKa (first)", "value": 5.32}, {"measurement": "pKa", "setting": "[4]; read-out: pKa (second)", "value": 7.12}]}, {"smiles": "CCC1(O)CC2CN(CCc3c([nH]c4ccccc34)C(C(=O)OC)(c3cc4c(cc3OC)N(C)C3C(O)(C(=O)OC)C(O)C5(CC)C=CCN6CCC43C65)C2)C1", "note": "(stereo not shown) [4-desacetyl VLB]", "values": [{"measurement": "anti-tumor activity", "setting": "[5]", "value": "active anti-tumor agent"}, {"measurement": "toxicity", "setting": "[6]", "value": "toxic material"}, {"measurement": "in vivo chemotherapeutic activity", "setting": "[6]; P1534 murine leukemia system", "value": "little in vivo chemotherapeutic activity"}]}, {"smiles": "CC[C@]12CN3CCc4c([nH]c5ccccc45)[C@@](C(=O)OC)(c4cc5c(cc4OC)N(C)[C@H]4[C@@](O)(C(=O)OC)[C@H](OC(C)=O)[C@]6(CC)C=CCN7CC[C@]54[C@@H]76)C[C@H](C3)[C@H]1O2", "note": "[leurosine]", "values": [{"measurement": "activity in the treatment of experimental malignancies", "setting": "[1]", "value": "active"}, {"measurement": "auto-oxidation", "setting": "[7]", "value": "auto-oxidizes to a 5'-hydroxy derivative"}]}, {"smiles": "CCC12CN3CCc4c([nH]c5ccccc45)C(C(=O)OC)(c4cc5c(cc4OC)N(C)C4C(O)(C(N)=O)C(O)C6(CC)C=CCN7CCC54C76)CC(C3)C1O2", "note": "(stereo not shown) [4-desacetylleurosine C-3 carboxamine, 4-Desacetylleurosine C-3 Carboxamide]", "values": [{"measurement": "Percent Inhibition of tumor growth", "setting": "[3]; 3 mg/kg per day", "value": 23, "unit": "%"}, {"measurement": "Percent Inhibition of tumor growth", "setting": "[3]; 6 mg/kg per day", "value": 100, "unit": "%"}, {"measurement": "Toxicity (printed in Percent Inhibition column)", "setting": "[3]; 12 mg/kg per day", "value": "Toxic"}]}, {"smiles": "CCC12CN3CCc4c([nH]c5ccccc45)C(C(=O)OC)(c4cc5c(cc4OC)N(C)C4C(O)(C(=O)NCCSSCCNC(=O)C6(O)C(O)C7(CC)C=CCN8CCC9(c%10cc(C%11(C(=O)OC)CC%12CN(CCc%13c%11[nH]c%11ccccc%13%11)CC%11(CC)OC%12%11)c(OC)cc%10N(C)C69)C87)C(O)C6(CC)C=CCN7CCC54C76)CC(C3)C1O2", "note": "(stereo not drawn) [Bis[β-(4-desacetylleurosine C-3 carboxamido)ethyl]disulfide]", "values": [{"measurement": "pKa (first)", "setting": "[4]; [8]", "value": 5.3}, {"measurement": "pKa (second)", "setting": "[4]; [8]", "value": 7.0}]}, {"smiles": "CCC1(O)CC2CN(CCc3c([nH]c4ccccc34)C(C(=O)OC)(c3cc4c(cc3OC)N(C=O)C3C(O)(C(=O)OC)C(OC(C)=O)C5(CC)C=CCN6CCC43C65)C2)C1", "note": "(stereo not shown) [leurocristine]", "values": [{"measurement": "activity in the treatment of experimental malignancies", "setting": "[1]", "value": "active"}]}, {"smiles": "CC[C@@]1(O)CN2CCc3c([nH]c4ccccc34)[C@@](C(=O)OC)(c3cc4c(cc3OC)N(C)[C@@H]3[C@]45CCN4CC=C[C@@](CC)(C[C@]3(O)C(=O)OC)[C@H]45)C[C@@H](C2)C1O", "note": "(stereo partly shown) [4-desacetoxy-3'-hydroxyvinblastine]", "values": [{"measurement": "activity in the treatment of experimental malignancies", "setting": "[1]", "value": "active"}]}, {"smiles": "CCC12CN3CCc4c([nH]c5ccccc45)C(C(=O)OC)(c4cc5c(cc4OC)N(C)C4C(O)(C(=O)NCCO)C(O)C6(CC)C=CCN7CCC54C76)CC(C3)C1O2", "note": "(stereo not drawn) [4-Desacetylleurosine C-3 N-(β-hydroxyethyl)carboxamide]", "values": [{"measurement": "Percent Inhibition of tumor growth", "setting": "[3]; 6 mg/kg per day", "value": 100, "unit": "%"}, {"measurement": "Percent Inhibition of tumor growth", "setting": "[3]; 12 mg/kg per day", "value": "100% and 98%"}]}]}
